Measured values as given in US20080045514A1 (Cytovia, Inc., priority 2006, published 2008).
pEC50: −log10 of the molar value. Where a name gives a salt, the structure may show the parent alone.

Tests used:
Type in all cases: cell-based
[1] = system: human breast cancer cell line T-47D; assay: Caspase cascade activation (EC50), T-47D; conditions: Homo sapiens; T47D cells; caspase cascade activation; read-out: caspase potency (EC50) T47D
Summary of the method: (§1)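 Cells were resuspended at 0.65×10^6 cells/mL in medium + 10% FCS and exposed to test compound at 0.016 to 10 μM final for 48 h at 37 °C. Caspase activity was then read as fluorescence (ex 485/em 530 nm) from DEVD-R110 substrate with lysolecithin in PIPES pH 7.2, 3 h at room temperature.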

[2] = system: human hepatocellular carcinoma cell line SNU398; assay: Caspase cascade activation (EC50), SNU398; conditions: Homo sapiens, SNU-398; SNU398 cells; caspase cascade activation; read-out: caspase potency (EC50) SNU398
Summary of the method: as §1

[3] = system: human colon carcinoma cell line HCT116; assay: Caspase cascade activation (EC50), HCT116; conditions: Homo sapiens, HCT-116; HCT116 cells; caspase cascade activation; read-out: caspase potency (EC50) HCT116
Summary of the method: as §1

[4] = system: human Burkitt's lymphoma cell line Namalwa; assay: Caspase cascade activation (EC50), Namalwa; conditions: Homo sapiens, Burkitts lymphoma cell; Namalwa cells; caspase cascade activation; read-out: caspase potency (EC50) Namalwa
Summary of the method: as §1

[5] = system: human lymphoma cell line Raji; assay: Caspase cascade activation (EC50), Raji; conditions: Homo sapiens, RAJI cells, read-out: caspase potency (EC50) RAJI
Summary of the method: as §1

[6] = system: human B cell lymphoblastoid cell line Ramos; assay: Caspase cascade activation (EC50), Ramos; conditions: Homo sapiens, RAMOS cells, read-out: caspase potency (EC50) RAMOS
Summary of the method: as §1

[7] = system: human breast cancer cell line T-47D; assay: Inhibition of cell proliferation (GI50), T47D; conditions: Homo sapiens; T47D cells, 48 h, CellTiter-Glo
Procedure: (§2) Human breast cancer cell lines T-47D, human hepatocellular carcinoma cell line SNU398, human colon carcinoma cell line HCT116, human lung cancer cell line H1299, human leukemia cell line K562, human lymphoma cell line Raji, human B cell lymphoblastoid cell line Ramos, and human Burkitt's lymphoma cell line Namalwa were grown and harvested as in Example 100. An aliquot of […] of cells (4.4×10^4 cells/mL) was added to a well of a 96-well microtiter plate containing 5 μL of a 10% DMSO in RPMI-1640 media solution containing 10 nM to 100 μM of 3-(2-chlorophenyl)-6-(3,4-methylenedioxyphenyl)-7H-[1,2,4]triazolo[3,4-b][1,3,4]thiadiazine (1 nM to 10 μM final). An aliquot of 45 μL of cells was added to a well of a 96-well microtiter plate containing 5 μL of a 10% DMSO in RPMI-1640 media solution without compound as the control sample for maximal cell proliferation (LMax). The samples were mixed by agitation and then incubated at 37° C. for 48 h in a 5% CO2-95% humidity incubator. After incubation, the samples were removed from the incubator and 25 μL of CellTiter-Glo™ reagent (Promega) was added. The samples were mixed by agitation and incubated at room temperature for 10-15 min. Plates were then read using a luminescent plate reader (Model SPECTRAfluor Plus, Tecan) to give Ltest values.
(§3) The samples were mixed by agitation and then incubated at 37° C. for 0.5 h in a 5% CO2-95% humidity incubator. After incubation, the samples were removed from the incubator and 25 μL of CellTiter-Glo™ reagent (Promega) was added. The samples were mixed by agitation and incubated at […] 10-15 min at room temperature in a 5% CO2-95% humidity incubator. Fluorescence was read as above, (LStart) defining luminescence for initial cell number used as baseline in GI50 determinations.
(§4) Calculation: GI50 (dose for 50% inhibition of cell proliferation) is the concentration where [(Ltest−LStart)/(LMax−LStart)]=0.5.

[8] = system: human hepatocellular carcinoma cell line SNU398; assay: Inhibition of cell proliferation (GI50), SNU398; conditions: Homo sapiens; SNU 398 cells, 48 h, CellTiter-Glo
Procedure: as §2, §3, §4

[9] = system: human colon carcinoma cell line HCT116; assay: Inhibition of cell proliferation (GI50), HCT116; conditions: Homo sapiens; HCT 116 cells, 48 h, CellTiter-Glo
Summary of the method: (§5)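 Seed 4.4×10^4 cells/mL onto compound dilutions (final 1 nM to 10 μM). Incubate 48 h, 37 °C, 5% CO2. Add CellTiter-Glo, read luminescence. Compute GI50 from test signal normalised between 0.5 h starting signal and untreated control.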

[10] = system: human Burkitt's lymphoma cell line Namalwa; assay: Inhibition of cell proliferation (GI50), Namalwa; conditions: Homo sapiens, Burkitts lymphoma cell; Namalwa cells, 48 h, CellTiter-Glo
Summary of the method: as §5

[11] = system: human leukemia cell line K562; assay: Inhibition of cell proliferation (GI50), K562; conditions: Homo sapiens; K562 cells, 48 h, CellTiter-Glo
Summary of the method: as §5

[12] = system: human lymphoma cell line Raji; assay: Inhibition of cell proliferation (GI50), Raji; conditions: Homo sapiens; Raji cells, 48 h, CellTiter-Glo
Summary of the method: as §5

[13] = system: human B cell lymphoblastoid cell line Ramos; assay: Inhibition of cell proliferation (GI50), Ramos; conditions: Homo sapiens; Ramos cells, 48 h, CellTiter-Glo
Summary of the method: as §5

[14] = system: human cancer cell line H1299; assay: Caspase cascade activation (EC50), H1299; conditions: NCI-H1299, H1299 cells, read-out: caspase potency (EC50) H1299
Summary of the method: as §1

[15] = system: human lung cancer cell line H1299; assay: Inhibition of cell proliferation (GI50), H1299; conditions: NCI-H1299, H1299 cells, 48 h, CellTiter-Glo
Procedure: as §2, §3, §4

Structure (SMILES) | pEC50 [1] | pEC50 [2] | pEC50 [3] | pEC50 [4] | pEC50 [5] | pEC50 [6] | GI50 [7] | GI50 [8] | GI50 [9] | GI50 [10] | GI50 [11] | GI50 [12] | GI50 [13] | pEC50 [14] | GI50 [15]
CCOc1ccccc1-c1nnc2n1N=C(c1ccc(C)cc1)CS2 [Example 19, 3-(2-Ethoxyphenyl)-6-(4-methylphenyl)-7H-[1,2,4]triazolo[3,4-b][1,3,4]thiadiazine hydrobromide] | 7.46 | 7.62 | 7.49 | 7.77 | 7.54 | 7.70 | 48 nM | 12 nM | 67 nM | 12 nM |  |  |  |  | 
COc1ccc(C2=Nn3c(nnc3-c3cc(OC)cc(OC)c3)SC2)cc1 [Example 20, 3-(3,5-Dimethoxyphenyl)-6-(4-methoxyphenyl)-7H-[1,2,4]triazolo[3,4-b][1,3,4]thiadiazine hydrobromide] |  |  |  | 7.26 | 7.02 | 7.44 | 373 nM | 11 nM | 99 nM | 13 nM |  |  |  |  | 
COc1ccccc1-c1nnc2n1N=C(c1ccc(C)cc1)CS2 [Example 8, 3-(2-Methoxyphenyl)-6-(4-methylphenyl)-7H-[1,2,4]triazolo[3,4-b][1,3,4]thiadiazine hydrochloride] | 6.84 | 7.60 | 7.22 | 7.51 | 7.24 | 7.52 | 17 nM | 150 nM | 15 nM | 66 nM | 43 nM | 27 nM | 16 nM |  | 
COc1ccc(C2=Nn3c(nnc3-c3ccc(OC)cc3OC)SC2)cc1 [Example 18, 3-(2,4-Dimethoxyphenyl)-6-(4-methoxyphenyl)-7H-[1,2,4]triazolo[3,4-b][1,3,4]thiadiazine hydrochloride] | 7.49 | 8.22 | 7.77 | 8.15 | 7.82 | 8.15 | 28 nM | 1 nM | 34 nM | 6 nM |  |  |  |  | 
c1cc2c(cc1C1=Nn3c(nnc3-c3n[nH]c4c3CCC4)SC1)OCO2 [Example W2] | 6.37 | 6.30 | 6.22 | 6.23 | 6.15 | 6.28 | 1500 nM | 294 nM | 5900 nM | 2550 nM | 1870 nM | 3000 nM | 1290 nM |  | 
COc1ccc(C2=Nn3c(nnc3-c3ccc(OC)c(OC)c3)SC2)cc1OC [Example N1, 3-(3,4-Dimethoxyphenyl)-6-(3,4-dimethoxyphenyl)-7H-[1,2,4]triazolo[3,4-b][1,3,4]thiadiazine] | 5.65 | 5.88 | 5.61 | 6.25 | 6.24 | 6.23 | 2650 nM |  |  |  |  |  |  | 5.62 | 1940 nM
COc1ccc(C2=Nn3c(nnc3-c3ccccc3Cl)SC2)cc1OC [N, 3-(2-Chlorophenyl)-6-(3,4-dimethoxyphenyl)-7H-[1,2,4]triazolo[3,4-b][1,3,4]thiadiazine] | 5.62 | 6.44 | 6.25 | 6.56 | 6.30 | 6.56 | 2540 nM |  |  |  |  |  |  | 6.12 | 510 nM
CCN(CC)c1ccc(C2=Nn3c(nnc3-c3cc(OC)c(OC)c(OC)c3)SC2)cc1 [Example 21, 6-(4-Diethylaminophenyl)-3-(3,4,5-trimethoxyphenyl)-7H-[1,2,4]triazolo[3,4-b][1,3,4]thiadiazine hydrochloride] |  |  |  | 6.55 | 6.36 | 6.57 | 185 nM | 20 nM | 680 nM | 176 nM |  |  |  |  | 
COc1ccccc1-c1nnc2n1N=C(c1ccc(C)c(C)c1)CS2 [Example 40, 3-(2-Methoxyphenyl)-6-(3,4-dimethylphenyl)-7H-[1,2,4]triazolo[3,4-b][1,3,4]thiadiazine] | 6.79 | 7.39 | 7.19 | 7.31 |  |  | 137 nM | 50 nM | 129 nM | 29 nM |  |  |  |  | 
COc1ccccc1-c1nnc2n1N=C(c1ccc(C)c(N)c1)CS2 [Example 58, 6-(3-Amino-4-methylphenyl)-3-(2-methoxyphenyl)-7H-[1,2,4]triazolo[3,4-b][1,3,4]thiadiazine] | 7.12 | 7.49 | 7.27 | 7.52 |  |  | 26 nM | 24 nM | 52 nM | 25 nM |  |  |  |  | 
COc1ccccc1-c1nnc2n1N=C(c1ccc(N)cc1)CS2 [Example 75, 6-(4-Aminophenyl)-3-(2-methoxyphenyl)-7H-[1,2,4]triazolo[3,4-b][1,3,4]thiadiazine] | 6.62 | 6.69 | 6.58 | 6.87 |  |  | 345 nM | 180 nM | 867 nM | 179 nM |  |  |  |  | 
COc1ccccc1-c1nnc2n1N=C(c1ccc(N(C)C)cc1)CS2 [Example 77, 6-(4-dimethylaminophenyl)-3-(2-methoxyphenyl)-7H-[1,2,4]triazolo[3,4-b][1,3,4]thiadiazine] | 7.74 | 7.85 | 7.96 | 8.15 |  |  | 5 nM | 2 nM | 12 nM | 5 nM |  |  |  |  | 
COc1cccc(-c2nnc3n2N=C(c2ccc(C)cc2)CS3)c1OC [Example 65, 3-(2,3-Dimethoxyphenyl)-6-(4-methylphenyl)-7H-[1,2,4]triazolo[3,4-b][1,3,4]thiadiazine] | 6.21 | 6.28 | 6.20 | 6.25 |  |  | 1510 nM | 204 nM | 4680 nM | 1230 nM |  |  |  |  | 
Cc1ccc(C2=Nn3c(nnc3-c3ccc(Cl)cc3C)SC2)cc1 [Example 81, 3-(4-Chloro-2-methylphenyl)-6-(4-methylphenyl)-7H-[1,2,4]triazolo[3,4-b][1,3,4]thiadiazine] | 6.57 | 7.41 | 7.17 | 7.26 |  |  | 255 nM | 21 nM | 79 nM | 18 nM |  |  |  |  | 
COc1ccccc1-c1nnc2n1N=C(c1ccc(N=[N+]=[N-])cc1)CS2 [Example 76, 6-(4-Azidophenyl)-3-(2-methoxyphenyl)-7H-[1,2,4]triazolo[3,4-b][1,3,4]thiadiazine] | 7.03 | 7.27 | 7.14 | 7.21 |  |  | 34 nM | 23 nM | 109 nM | 55 nM |  |  |  |  | 
